Test results taken from BindingDB's records for doi:10.1021/acschembio.6b00720 (University of Michigan, 2016).

Experiments:
[1] = target: Acyl-protein thioesterase 2 [S122A] (Homo sapiens, UniProt O95372, S122A); assay: Fluorescence Binding Assays; conditions: 25 °C
[2] = target: T1, Acyl-protein thioesterase 2 (Homo sapiens, UniProt O95372); assay: Fluorescence Binding Assays; conditions: 25 °C
[3] = target: Acyl-protein thioesterase 1 (Homo sapiens, UniProt O75608); assay: Steady-State Kinetic Assays; conditions: pH 6.5
Sequence of Acyl-protein thioesterase 1 (O75608 whole entry): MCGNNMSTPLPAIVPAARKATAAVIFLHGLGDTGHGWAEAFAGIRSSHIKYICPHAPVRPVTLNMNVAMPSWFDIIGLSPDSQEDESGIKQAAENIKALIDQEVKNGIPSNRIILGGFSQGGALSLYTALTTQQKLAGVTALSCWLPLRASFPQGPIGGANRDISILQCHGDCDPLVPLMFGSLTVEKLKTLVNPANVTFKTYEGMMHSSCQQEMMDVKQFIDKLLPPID
Description: (§1) Enzymes were diluted to 10 nM in PBS pH 6.5 (adjusted with sodium acetate) supplemented with 0.1 g/L pluronic F127 (Sigma). Varying concentrations of resorufin acetate (Sigma) in DMSO were added as 5 μL aliquots to clear-bottom 96-well plates (Greiner bio-one). Using a multi-channel pipette, 95 μL of enzyme was added to each well and quickly mixed by pipetting up and down several times. Each enzyme was assayed in 2 separate runs, each with 4 replicates per substrate concentration and 4 replicates of catalytic-dead enzyme.

[4] = target: Acyl-protein thioesterase 1 [Q83P] (Homo sapiens, UniProt O75608, Q83P); assay: Steady-State Kinetic Assays; conditions: pH 6.5
Sequence of Acyl-protein thioesterase 1 [Q83P] (O75608 whole entry Q83P): as the sequence (O75608 whole entry) above, with Q83P counted along it
Description: as §1

[5] = target: Acyl-protein thioesterase 2 [M178L] (Homo sapiens, UniProt O95372, M178L); assay: Steady-State Kinetic Assays; conditions: pH 6.5
Sequence of Acyl-protein thioesterase 2 [M178L] (O95372 whole entry M178L): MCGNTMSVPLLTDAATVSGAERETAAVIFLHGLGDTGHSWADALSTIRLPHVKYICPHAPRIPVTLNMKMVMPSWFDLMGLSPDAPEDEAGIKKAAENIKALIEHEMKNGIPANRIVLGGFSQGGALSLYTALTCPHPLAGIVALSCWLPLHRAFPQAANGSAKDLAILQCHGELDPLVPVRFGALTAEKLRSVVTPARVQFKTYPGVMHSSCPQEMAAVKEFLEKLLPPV
Description: as §1

[6] = target: Acyl-protein thioesterase 2 [H152R] (Homo sapiens, UniProt O95372, H152R); assay: Steady-State Kinetic Assays; conditions: pH 6.5
Sequence of Acyl-protein thioesterase 2 [H152R] (O95372 whole entry H152R): as the sequence (O95372 whole entry M178L) above, with H152R, L178M counted along it
Description: as §1

[7] = target: Acyl-protein thioesterase 2 [L78I] (Homo sapiens, UniProt O95372, L78I); assay: Steady-State Kinetic Assays; conditions: pH 6.5
Sequence of Acyl-protein thioesterase 2 [L78I] (O95372 whole entry L78I): as the sequence (O95372 whole entry M178L) above, with L78I, L178M counted along it
Description: as §1

[8] = target: Acyl-protein thioesterase 2 [L78I,A85S,P86Q,H152R,R153A,A154S] (Homo sapiens, UniProt O95372, A154S/A85S/H152R/L78I/P86Q/R153A); assay: Steady-State Kinetic Assays; conditions: pH 6.5
Sequence of Acyl-protein thioesterase 2 [L78I,A85S,P86Q,H152R,R153A,A154S] (O95372 whole entry L78I/A85S/P86Q/H152R/R153A/A154S): as the sequence (O95372 whole entry M178L) above, with L78I, A85S, P86Q, H152R, R153A, A154S, L178M counted along it
Description: as §1

[9] = target: Acyl-protein thioesterase 2 [P86Q] (Homo sapiens, UniProt O95372, P86Q); assay: Steady-State Kinetic Assays; conditions: pH 6.5
Sequence of Acyl-protein thioesterase 2 [P86Q] (O95372 whole entry P86Q): as the sequence (O95372 whole entry M178L) above, with P86Q, L178M counted along it
Description: as §1

[10] = target: Acyl-protein thioesterase 1 [I75L] (Homo sapiens, UniProt O75608, I75L); assay: Steady-State Kinetic Assays; conditions: pH 6.5
Sequence of Acyl-protein thioesterase 1 [I75L] (O75608 whole entry I75L): as the sequence (O75608 whole entry) above, with I75L counted along it
Description: as §1

[11] = target: Acyl-protein thioesterase 1 [I75L,S82A,Q83P,R149H,A150R,S151A] (Homo sapiens, UniProt O75608, A150R/I75L/Q83P/R149H/S151A/S82A); assay: Steady-State Kinetic Assays; conditions: pH 6.5
Sequence of Acyl-protein thioesterase 1 [I75L,S82A,Q83P,R149H,A150R,S151A] (O75608 whole entry I75L/S82A/Q83P/R149H/A150R/S151A): as the sequence (O75608 whole entry) above, with I75L, S82A, Q83P, R149H, A150R, S151A counted along it
Description: as §1

[12] = target: Acyl-protein thioesterase 2 [L78I,A85S] (Homo sapiens, UniProt O95372, A85S/L78I); assay: Steady-State Kinetic Assays; conditions: pH 6.5
Sequence of Acyl-protein thioesterase 2 [L78I,A85S] (O95372 whole entry L78I/A85S): as the sequence (O95372 whole entry M178L) above, with L78I, A85S, L178M counted along it
Description: as §1

[13] = target: Acyl-protein thioesterase 1 [I75L,S82A] (Homo sapiens, UniProt O75608, I75L/S82A); assay: Steady-State Kinetic Assays; conditions: pH 6.5
Sequence of Acyl-protein thioesterase 1 [I75L,S82A] (O75608 whole entry I75L/S82A): as the sequence (O75608 whole entry) above, with I75L, S82A counted along it
Description: as §1

[14] = target: Acyl-protein thioesterase 1 [L176M] (Homo sapiens, UniProt O75608, L176M); assay: Steady-State Kinetic Assays; conditions: pH 6.5
Sequence of Acyl-protein thioesterase 1 [L176M] (O75608 whole entry L176M): as the sequence (O75608 whole entry) above, with L176M counted along it
Description: as §1

[15] = target: Acyl-protein thioesterase 2 [L78I,A85S,P86Q] (Homo sapiens, UniProt O95372, A85S/L78I/P86Q); assay: Steady-State Kinetic Assays; conditions: pH 6.5
Sequence of Acyl-protein thioesterase 2 [L78I,A85S,P86Q] (O95372 whole entry L78I/A85S/P86Q): as the sequence (O95372 whole entry M178L) above, with L78I, A85S, P86Q, L178M counted along it
Description: as §1

[16] = target: T1, Acyl-protein thioesterase 2; assay: Steady-State Kinetic Assays; conditions: pH 6.5
Description: as §1

[17] = target: Acyl-protein thioesterase 1 [I75L,S82A,Q83P] (Homo sapiens, UniProt O75608, I75L/Q83P/S82A); assay: Steady-State Kinetic Assays; conditions: pH 6.5
Sequence of Acyl-protein thioesterase 1 [I75L,S82A,Q83P] (O75608 whole entry I75L/S82A/Q83P): as the sequence (O75608 whole entry) above, with I75L, S82A, Q83P counted along it
Description: as §1

Sequence of Acyl-protein thioesterase 2 [S122A] (O95372 whole entry S122A): as the sequence (O95372 whole entry M178L) above, with S122A, L178M counted along it
T1 sequence (O95372 whole entry): as the sequence (O95372 whole entry M178L) above, with L178M counted along it

Row | SMILES | IC50 [1] [nM] | Kd [1] [nM] | IC50 [2] [nM] | Kd [2] [nM] | Ki [3] [nM] | Ki [4] [nM] | Ki [5] [nM] | Ki [6] [nM] | Ki [7] [nM] | Ki [8] [nM] | Ki [9] [nM] | Ki [10] [nM] | Ki [11] [nM] | Ki [12] [nM] | Ki [13] [nM] | Ki [14] [nM] | Ki [15] [nM] | Ki [16] [nM] | Ki [17] [nM]
1 | COc1ccc(N2CCN(C(=O)c3cc4c(s3)-c3ccccc3SC4)CC2)cc1 [ML349-thioether] | > 100000 | > 10000 | > 100000 | > 10000 |  |  |  |  |  |  |  |  |  |  |  |  |  |  | 
2 | COc1ccc(N2CCN(C(=O)c3cc4c(s3)-c3ccccc3S(=O)(=O)C4)CC2)cc1 [ML349] | 1000 | 160 | 1100 | 240 | > 10000 | > 10000 | 200 | 660 | > 10000 | > 10000 | 130 | 370 | 180 | > 10000 | 280 | > 10000 | > 10000 | 120 | 1200
3 | O=C1C=CC2C(=C1)Oc1cc(O)ccc1C2c1cc(C(=O)NCCOCCOCCOCCn2cc(COc3ccc(N4CCN(C(=O)c5cc6c(s5)-c5ccccc5S(=O)(=O)C6)CC4)cc3)nn2)ccc1C(=O)O (stereo not drawn) |  | 770 |  | 1020 |  |  |  |  |  |  |  |  |  |  |  |  |  |  | 
4 | O=C(CN1CCN(C(=O)c2ccco2)CC1)Nc1cc(C(F)(F)F)ccc1Cl [ML348] |  |  |  |  |  |  | > 10000 | > 10000 | 5800 | 430 | > 10000 |  |  | 6200 |  |  | 3400 | > 10000 | 
